Reference: PMC7994357, “Gene Expression, Biochemical Characterization of a sn-1, 3 Extracellular Lipase From Aspergillus niger GZUF36 and Its Model-Structure Analysis” (Frontiers in Microbiology, 2021)

Target: T1, PEXANL1 (Aspergillus niger, UniProt A0A5C2GD86)
T1 construct: mature peptide (278 residues of 297, signal peptide removed), extra N-terminal residues, C-terminal 6xHis kept; secreted from Pichia pastoris GS115 (pPIC9K, codon-optimised), Ni-NTA purified, Endo Hf deglycosylated
T1 sequence (A0A5C2GD86 20-297): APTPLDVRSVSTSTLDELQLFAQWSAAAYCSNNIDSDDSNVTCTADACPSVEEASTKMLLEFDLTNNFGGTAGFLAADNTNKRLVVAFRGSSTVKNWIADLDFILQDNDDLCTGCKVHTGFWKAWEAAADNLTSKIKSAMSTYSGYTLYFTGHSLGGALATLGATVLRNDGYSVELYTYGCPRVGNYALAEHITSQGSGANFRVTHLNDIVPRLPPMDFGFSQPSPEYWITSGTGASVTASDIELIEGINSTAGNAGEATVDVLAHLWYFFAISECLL
Test: ultrasound-assisted solvent-free esterification, HPLC of glycerides
Type: biochemical
Conditions: 40 °C, ultrasound 200 W, 40 kHz

Row | SMILES | ultrasound-assisted solvent-free esterification, HPLC of glycerides (co-substrate oleic acid (glycerol to oleic acid 5:1 molar)) | ultrasound-assisted solvent-free esterification, HPLC of glycerides (co-substrate glycerol (glycerol to oleic acid 5:1 molar))
1 | OCC(O)CO [glycerol] | Ultrasound-assisted esterification of oleic acid (OA) with glycerol was studied | –
2 | CCCCCCCC/C=C\CCCCCCCC(=O)O [oleic acid] | – | Ultrasound-assisted esterification of oleic acid (OA) with glycerol was studied
